The test system of experiment [1] is DC2.4 murine dendritic cells. Kind of experiment: Immunogenicity experiment: cytokine expression in dendritic cells (qPCR). The class given is cell-based. The settings on record: DC2.4 cells, 2 h with conditioned media from 4T1 cells treated with 100 µM CKS1; N = 4. On the procedure: Two-lakh cells of 4T1 cells were seeded in wells of a 6-well plate. After overnight incubation, the media was replaced with 500 µL of fresh media, and 4T1 cells were treated with either 100 µM CKS1 or water for 2 h. In a separate well, 500 µL of fresh media was added and 100 µM CKS1 was incubated for 2 h. After the 2 h of incubation, all the supernatant was collected, filtered with 0.22 µm syringe filter, and was stored at −80 °C. Five lakh cells of DC2.4 cells were seeded in wells of a 24-well plate. After overnight incubation, the media was replaced with fresh media, supernatant from 4T1 cells treated with water, supernatant from 4T1 cells treated with 100 µM CKS1, or media containing 100 µM CKS1. DC2.4 cells were incubated for 2 h before RNA extraction.
RNA extraction was conducted using QIAwave RNA Mini Kit (Qiagen, Germany, 74535) following the manufacturer’s instructions. […]
Real-time qPCR was conducted using PowerUp SYBR Green Master Mix for qPCR (Thermo Fisher Scientific, A25741) following the manufacturer’s instructions. […] The relative quantity of TNF, IL-6, and IL-12b was normalized to the relative quantity of GAPDH. Finally, the expression level of the cytokines was normalized to the control sample and the fold change was calculated.
For orientation: Real-time PCR tracks product formation cycle by cycle.

In experiment [2] the test system is 4T1 cells. Nature of the experiment: LDH release assay (CyQUANT). The class given is cell-based, murine. The settings on record: 6 h, indicated concentrations, normalized to lysis buffer. A general note: LDH leaks from cells whose membrane has failed.
Method: Ten thousand cells were seeded in a 96-well plate and incubated overnight. The cells were washed once, and the medium was replaced with serum-free media. Cells were treated with CKS1 for the indicated time and concentration. CyQUANT LDH cytotoxicity assay (Thermo Fisher Scientific) was used following the manufacturer’s instructions to measure the release of LDH. LDH release was normalized to the amount of LDH released from cells treated with lysis buffer.
In experiment [3] the test system is CT26 cells. Nature of the experiment: Quantification of ATP release. The class given is cell-based, murine. The settings on record: 20 µM or 100 µM, 30 min, N = 3. On the procedure:
(§1) Two-lakh cells of 4T1 cells or CT26 cells in growth media were seeded in wells of a 96-well plate. After 12 h, the media was replaced with serum-free media, and the cells were treated with the corresponding concentration of CKS1. […] After filtering the supernatant with a 0.2 µm pore filter (Corning, 431229), the amount of ATP in the supernatant was quantified using the ENLITEN ATP assay system (Promega Corporation, Madison, WI, FF2000). We followed the instructions from the manufacturer when using the ENLITEN ATP assay system.

The test system of experiment [4] is 4T1 cells. Nature of the experiment: Quantification of ATP release. The settings on record: 20 µM or 100 µM, 30 min, N = 3. The format is cell-based, murine. On the procedure: as §1
In experiment [5] the test system is CT26 cells. Nature of the experiment: Quantification of HMGB-1 release (ELISA). The class given is cell-based, murine. The settings on record: 100 µM, 6 h, N = 3. On the procedure: (§2) Fifteen thousand cells of 4T1 cells or CT26 cells in growth media were seeded in wells of a 96-well plate. After 12 h, the media was replaced with serum-free media, and the cells were treated with the corresponding concentration of CKS1. The cells were treated with CKS1 for 6 h and the supernatant was collected from each well. After filtering the supernatant with a 0.2 µm pore filter (Corning, 431229), the amount of HMGB-1 in the supernatant was quantified using the Mouse/Rat HMGB1 ELISA kit (arigo biolaboratories, ARG81310).
In general terms: An ELISA detects its analyte on a solid surface through an enzyme-linked reagent.

For experiment [6], the system named is 4T1 cells. Nature of the experiment: Quantification of HMGB-1 release (ELISA). The format is cell-based, murine. The settings on record: 100 µM, 6 h, N = 3. The protocol: as §2
Experiment [7] relates to 4T1 cells. Kind of experiment: JC-1 mitochondrial membrane potential live cell imaging. The format is cell-based, murine. The settings on record: 100 µM. The protocol:
Fluorescence labeling of cells was performed by seeding 5.0 × 10^4 4T1 cells in a 35 mm dish on a collagen-coated No. 1.5 coverslip with a 14 mm glass diameter (MatTek, Ashland, MA). After overnight incubation, the cells were washed once with serum-free media and replaced with fresh serum-free media. For cell cytosol labeling, Calcein-AM (Thermo Fisher Scientific, C1430) was added at a final concentration of 5 µg/mL and incubated for 10 min. For mitochondrial membrane labeling, JC-1 (Thermo Fisher Scientific, T3168) was added at a final concentration of 10 µg/mL and incubated for 10 min. To monitor the activity of caspases, CellEvent Caspase-3/7 Red detection reagents (Thermo Fisher Scientific, C10423) were used following the manufacturer’s instructions. For nuclear staining, Hoechst 33342 (Cell Signaling Technology, #4082) was added at a final concentration of 5 µg/mL and incubated for 10 min.
Cells were imaged on either a Zeiss LSM 700 or a 3i spinning disk confocal microscope. Samples were imaged with optimized microscope settings. […]
Image processing was performed using Fiji software. […] For quantification, CellProfiler was used. After cell segmentation based on the nucleus, the intensity of the signal of interest was quantified for each cell. Based on the intensity, each cells were labeled as positive or negative and the fraction of positive cells was calculated.

The next experiment deals with caspase-3. Kind of experiment: Caspase-3 activity assay in cell lysate. The format is cell-based, murine. The settings on record: 4T1 cells, 100 µM, N = 3. The protocol: Ten thousand 4T1 cells were seeded in 96-well plates and incubated overnight. After CKS1 treatment, the cells were lysed using a lysis buffer (Cell Signaling Technology, #7018). The activity of caspase-3 in the cell lysate was quantified using the caspase-3 activity assay kit (Cell Signaling Technology, #5723) following the manufacturer’s instructions. Briefly, the cell lysate was incubated with a substrate of caspase-3 which was designed to emit fluorescence when cleaved. After incubation, the fluorescence was measured using a plate reader. The protein concentration of the cell lysate was quantified using the DC protein assay kit (Bio-Rad). The caspase-3 activity was divided by the protein concentration to obtain the caspase-3 activity per µg/mL protein in the cell lysate.

Ends that are not written are not given here.

Consider one substance from paper PMC10987543 (Cell Death Discovery, 2024).

Take “NGRKACLNPASPIVKKIIEKMLNS-NH2 [CKS1, Chemokinostatin-1]”: the “expression level of TNF, IL-6, IL-12b” value in experiment [1] is “significantly increased the expression level of the cytokines”. Also, the “release of LDH” value in the experiment on 4T1 cells [2] is reported as “released significant amounts of LDH”. Also, the “release of ATP in the culture media” value in the experiment on CT26 cells [3] and with 4T1 cells [4] was “significant release of ATP” in each case. The “release of HMGB-1 in the culture media” value in the experiment on CT26 cells [5] is given as “significant release of HMGB-1”; in the experiment on 4T1 cells [6] it was “weak”. In the experiment on 4T1 cells [7], the “mitochondrial membrane potential (JC-1 fluorescence)” value was “rapid switch of JC-1 emitted fluorescence from red to green”. Moreover, the entries for the “caspase-3 activity in cell lysate” value in the experiment with caspase-3 (30 min) and in the experiment with caspase-3 (4 h) were “not activated” and “activated after 4 h”, respectively.
